Data on 11 compounds can be found in patent US10457707B2, “Substituted urea depsipeptide analogs as activators of the CLPP endopeptidase” (priority 2015, dated 2019).

Usually EC50 stands for the concentration needed to bring the measured effect to its halfway point.

Test [1] concerns the target T1, Sa-ClpP (Staphylococcus aureus, UniProt Q2G036).
T1 construct: made in house; host or cells: E. coli BL21(DE3)
T1 sequence (Q2G036 1-195): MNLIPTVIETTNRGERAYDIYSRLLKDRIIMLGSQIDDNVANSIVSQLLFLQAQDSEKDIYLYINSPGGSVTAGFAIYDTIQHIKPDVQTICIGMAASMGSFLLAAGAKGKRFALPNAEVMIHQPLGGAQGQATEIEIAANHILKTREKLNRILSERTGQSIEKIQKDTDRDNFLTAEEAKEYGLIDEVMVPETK
Nature of the test: Sa-ClpP casein-BODIPY ClpP activation assay, method variant not marked in Table 5. In kind it is biochemical, S. aureus. The procedure, abridged:
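EC50 for activation derived by dose-response fitting of casein digestion rates, run in triplicate. Conditions: 37° C, pH 8 buffer with 200 mM KCl and 1 mM TCEP, 10 μM Sa-ClpP, 25 μg/ml BODIPY FL casein, compound at 0-1000 μM; signal at 485/528 nm followed 45 min.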

In test [2] the test system is Streptococcus pneumoniae, R6. Nature of the test: Minimal inhibitory concentration assay. The class given is cell-based. Conditions: read-out: Minimal Inhibitory Concentrations S. pneumoniae R6. A digest of the protocol: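 Microbroth dilution with two-fold serial compound dilutions in broth, incubated aerobically overnight at 37° C. MIC taken as the lowest concentration preventing bacterial growth.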

[3] abbreviates: values without ** or † mark, assay variant not stated, read-out: ClpP Activation EC50.

Converted amounts (≈) assume the structure as drawn. Like-named read-outs stand apart in the source and are kept apart here. *1 amine or outer side, *2 acyl side, *3 side chain or, on linkers, in order; H or OH if unused. Where a SMILES comes first, the peptide text is derived from it. Bridges are numbered along the chain shown (N, C = ends). [ ]: non-standard residue; d: D form. The star is where a group is joined. Phe(3,5-F2) = N[C@@H](Cc1cc(F)cc(F)c1)C(=O)O; NH(4-OCF3-phenyl) = FC(F)(F)Oc1ccc(N*)cc1; Morpholine(3S-CO) = O=C(O)[C@@H]1COCCN1; Pro(4S-Me) = C[C@@H]1CN[C@H](C(=O)O)C1; Pro(4R-Me) = C[C@H]1CN[C@H](C(=O)O)C1; NH(3,4-Me2-phenyl) = Cc1ccc(N*)cc1C; NMeaThr = CN[C@H](C(=O)O)[C@H](C)O; Hyp = O=C(O)[C@@H]1C[C@@H](O)CN1; NH(4-Et-phenyl) = CCc1ccc(N*)cc1; NH(4-Me-phenyl) = Cc1ccc(N*)cc1; aThr = C[C@H](O)[C@H](N)C(=O)O; Pip = O=C(O)[C@@H]1CCCCN1; NMeA = CN[C@@H](C)C(=O)O; CO = O=C([*:1])[*:2]

In the case of `C[C@H]1C[C@H]2C(=O)O[C@@H](C)[C@H](NC(=O)[C@H](Cc3cc(F)cc(F)c3)NC(=O)Nc3ccc(OC(F)(F)F)cc3)C(=O)N3CCC[C@H]3C(=O)N(C)[C@@H]([C@H](C)O)C(=O)N[C@@H](C)C(=O)N2C1` [Compound 203, (S)-3-(3,5-difluorophenyl)-N-((2S,6S,9S,11aS,17S,18S,20aS)-9-((S)-1-hydroxyethyl)-2,6,10,18-tetramethyl-5,8,11,16,20-pentaoxohexadecahydro-1H,5H,16H-dipyrrolo[2,1-c:2′,1′-l][1]oxa[4,7,10,13]tetraazacyclohexadecin-17-yl)-2-(3-(4-(trifluoromethoxy)phenyl)ureido)propanamide] ({NH(4-OCF3-phenyl)-CO}-[Phe(3,5-F2)][aThr]P[NMeaThr]A[Pro(4S-Me)]; ester 2-C), the EC50 in test [1] (setting [3]) turned out to be 430 ± 10 nM. For the same compound, the MIC in test [2] worked out at 0.024 µM (≈ 0.0212 µg/mL).

For `CCc1ccc(NC(=O)N[C@@H](Cc2cc(F)cc(F)c2)C(=O)N[C@@H]2C(=O)N3CCC[C@H]3C(=O)N(C)[C@@H]([C@H](C)O)C(=O)N[C@@H](C)C(=O)N3C[C@@H](C)C[C@H]3C(=O)O[C@H]2C)cc1` [Compound 204, (S)-3-(3,5-difluorophenyl)-2-(3-(4-ethylphenyl)ureido)-N-((2S,6S,9S,11aS,17S,18S,20aS)-9-((S)-1-hydroxyethyl)-2,6,10,18-tetramethyl-5,8,11,16,20-pentaoxohexadecahydro-1H,5H,16H-dipyrrolo[2,1-c:2′,1′-l][1]oxa[4,7,10,13]tetraazacyclohexadecin-17-yl)propanamide] ({NH(4-Et-phenyl)-CO}-[Phe(3,5-F2)][aThr]P[NMeaThr]A[Pro(4S-Me)]; ester 2-C), the concentration giving a half-maximal response (EC50) in test [1] (setting [3]) worked out at 350 ± 10 nM. Besides, the MIC in test [2] worked out at 0.024 µM (≈ 0.0198 µg/mL).

As for `Cc1ccc(NC(=O)N[C@@H](Cc2ccccc2)C(=O)N[C@H]2COC(=O)[C@@H]3C[C@@H](C)CN3C(=O)[C@H](C)NC(=O)[C@@H]3CCCCN3C(=O)[C@@H]3CCCN3C2=O)cc1C` [Compound 206, (S)—N-((2R,6S,8aS,14aS,20S,23aS)-2,6-dimethyl-5,8,14,19,23-pentaoxooctadecahydro-1H,5H,14H,19H-pyrido[2,1-i]dipyrrolo[2,1-c:2′,1′-l][1]oxa[4,7,10,13]tetraazacyclohexadecin-20-yl)-2-(3-(3,4-dimethylphenyl)ureido)-3-phenylpropanamide], the EC50 in test [1] (setting [3]) worked out at 1600 ± 300 nM. In addition, the MIC in test [2] is less than 0.2 µM.

`Cc1ccc(NC(=O)N[C@@H](Cc2cc(F)cc(F)c2)C(=O)N[C@H]2COC(=O)[C@@H]3C[C@@H](C)CN3C(=O)[C@H](C)NC(=O)[C@@H]3CCCCN3C(=O)[C@@H]3CCCN3C2=O)cc1C` [Compound 207, (S)-3-(3,5-difluorophenyl)-N-((2R,6S,8aS,14aS,20S,23aS)-2,6-dimethyl-5,8,14,19,23-pentaoxooctadecahydro-1H,5H,14H,19H-pyrido[2,1-i]dipyrrolo[2,1-c:2′,1′-l][1]oxa[4,7,10,13]tetraazacyclohexadecin-20-yl)-2-(3-(3,4-dimethylphenyl)ureido)propanamide]: the EC50 in test [1] (setting [3]) was 8300 ± 1900 nM. Besides, the MIC in test [2] was less than 0.2 µM.

Turning to `Cc1ccc(NC(=O)N[C@@H](Cc2cc(F)cc(F)c2)C(=O)N[C@@H]2C(=O)N3CCC[C@H]3C(=O)N(C)[C@@H]([C@H](C)O)C(=O)N[C@@H](C)C(=O)N3C[C@H](C)C[C@H]3C(=O)O[C@H]2C)cc1` [Compound 208, (S)-3-(3,5-difluorophenyl)-N-((2R,6S,9S,11aS,17S,18S,20aS)-9-((S)-1-hydroxyethyl)-2,6,10,18-tetramethyl-5,8,11,16,20-pentaoxohexadecahydro-1H,5H,16H-dipyrrolo[2,1-c:2′,1′-l][1]oxa[4,7,10,13]tetraazacyclohexadecin-17-yl)-2-(3-(p-tolyl)ureido)propanamide] ({NH(4-Me-phenyl)-CO}-[Phe(3,5-F2)][aThr]P[NMeaThr]A[Pro(4R-Me)]; ester 2-C), the EC50 in test [1] (setting [3]) is 480 ± 30 nM. Also, the MIC in test [2] worked out at 0.02 µM (≈ 0.0162 µg/mL).

Take `Cc1ccc(NC(=O)N[C@@H](Cc2cc(F)cc(F)c2)C(=O)N[C@@H]2C(=O)N3CCC[C@H]3C(=O)N3CCCC[C@H]3C(=O)N[C@@H](C)C(=O)N3C[C@H](C)C[C@H]3C(=O)O[C@H]2C)cc1` [Compound 209, (S)-3-(3,5-difluorophenyl)-2-(3-(p-tolyl)ureido)-N-((2R,6S,8aS,14aS,20S,21S,23aS)-2,6,21-trimethyl-5,8,14,19,23-pentaoxooctadecahydro-1H,5H,14H,19H-pyrido[2,1-i]dipyrrolo[2,1-c:2′,1′-l][1]oxa[4,7,10,13]tetraazacyclohexadecin-20-yl)propanamide] ({NH(4-Me-phenyl)-CO}-[Phe(3,5-F2)][aThr]P[Pip]A[Pro(4R-Me)]; ester 2-C): in test [1] (setting [3]), the EC50 came to 360 ± 30 nM. In addition, in test [2], the MIC is 0.05 µM (≈ 0.0404 µg/mL).

`Cc1ccc(NC(=O)N[C@@H](Cc2cc(F)cc(F)c2)C(=O)N[C@@H]2C(=O)N3CCC[C@H]3C(=O)N3CCOC[C@H]3C(=O)N[C@@H](C)C(=O)N3C[C@H](C)C[C@H]3C(=O)O[C@H]2C)cc1` [Compound 210, (S)-3-(3,5-difluorophenyl)-2-(3-(p-tolyl)ureido)-N-((6aS,12S,13S,15aS,17R,21S,23aS)-13,17,21-trimethyl-6,11,15,20,23-pentaoxooctadecahydro-6H,11H,15H-[1,4]oxazino[3,4-i]dipyrrolo[2,1-c:2′,1′-l][1]oxa[4,7,10,13]tetraazacyclohexadecin-12-yl)propanamide] ({NH(4-Me-phenyl)-CO}-[Phe(3,5-F2)][aThr]P[Morpholine(3S-CO)]A[Pro(4R-Me)]; ester 2-C): the EC50 in test [1] (setting [3]) stood at 400 ± 10 nM. In addition, the MIC in test [2] worked out at 0.002 µM (≈ 0.00162 µg/mL).

`CCc1ccc(NC(=O)N[C@@H](Cc2cc(F)cc(F)c2)C(=O)N[C@@H]2C(=O)N3C[C@H](O)C[C@H]3C(=O)N3CCCC[C@H]3C(=O)N[C@@H](C)C(=O)N3C[C@H](C)C[C@H]3C(=O)O[C@H]2C)cc1` [Compound 211, (S)-3-(3,5-difluorophenyl)-2-(3-(4-ethylphenyl)ureido)-N-((2R,6S,8aS,14aS,16R,20S,21S,23aS)-16-hydroxy-2,6,21-trimethyl-5,8,14,19,23-pentaoxooctadecahydro-1H,5H,14H,19H-pyrido[2,1-i]dipyrrolo[2,1-c:2′,1′-l][1]oxa[4,7,10,13]tetraazacyclohexadecin-20-yl)propanamide] ({NH(4-Et-phenyl)-CO}-[Phe(3,5-F2)][aThr][Hyp][Pip]A[Pro(4R-Me)]; ester 2-C): a half-maximal response in test [1] (EC50) required 500 ± 10 nM. In addition, the MIC in test [2] was 0.005 µM (≈ 0.00419 µg/mL).

Consider `Cc1ccc(NC(=O)N[C@@H](Cc2cc(F)cc(F)c2)C(=O)N[C@@H]2C(=O)N3C[C@H](O)C[C@H]3C(=O)N3CCCC[C@H]3C(=O)N[C@@H](C)C(=O)N3C[C@H](C)C[C@H]3C(=O)O[C@H]2C)cc1C` [Compound 212, (S)-3-(3,5-difluorophenyl)-2-(3-(3,4-dimethylphenyl)ureido)-N-((2R,6S,8aS,14aS,16R,20S,21S,23aS)-16-hydroxy-2,6,21-trimethyl-5,8,14,19,23-pentaoxooctadecahydro-1H,5H,14H,19H-pyrido[2,1-i]dipyrrolo[2,1-c:2′,1′-l][1]oxa[4,7,10,13]tetraazacyclohexadecin-20-yl)propanamide] ({NH(3,4-Me2-phenyl)-CO}-[Phe(3,5-F2)][aThr][Hyp][Pip]A[Pro(4R-Me)]; ester 2-C), for which the EC50 in test [1] (setting [3]) turned out to be 500 ± 30 nM. Further, in test [2], the MIC was 0.002 µM (≈ 0.00168 µg/mL).

Take `Cc1ccc(NC(=O)N[C@@H](Cc2cc(F)cc(F)c2)C(=O)N[C@@H]2C(=O)N3C[C@H](O)C[C@H]3C(=O)N(C)[C@@H](C)C(=O)N[C@@H](C)C(=O)N3C[C@@H](C)C[C@H]3C(=O)O[C@H]2C)cc1` [Compound 214, (S)-3-(3,5-difluorophenyl)-N-((2S,6S,9S,11aS,13R,17S,18S,20aS)-13-hydroxy-2,6,9,10,18-pentamethyl-5,8,11,16,20-pentaoxohexadecahydro-1H,5H,16H-dipyrrolo[2,1-c:2′,1′-l][1]oxa[4,7,10,13]tetraazacyclohexadecin-17-yl)-2-(3-(p-tolyl)ureido)propanamide] ({NH(4-Me-phenyl)-CO}-[Phe(3,5-F2)][aThr][Hyp][NMeA]A[Pro(4S-Me)]; ester 2-C): in test [1] (setting [3]), the half-maximal effective concentration (EC50) is 1280 ± 30 nM. In test [2], the MIC came to 0.195 µM (≈ 0.156 µg/mL).

With `Cc1ccc(NC(=O)N[C@@H](Cc2cc(F)cc(F)c2)C(=O)N[C@@H]2C(=O)N3C[C@H](O)C[C@H]3C(=O)N3CCOC[C@H]3C(=O)N[C@@H](C)C(=O)N3C[C@H](C)C[C@H]3C(=O)O[C@H]2C)cc1C` [Compound 215, (S)-3-(3,5-difluorophenyl)-2-(3-(3,4-dimethylphenyl)ureido)-N-((6aS,8R,12S,13S,15aS,17R,21S,23aS)-8-hydroxy-13,17,21-trimethyl-6,11,15,20,23-pentaoxooctadecahydro-6H,11H,15H-[1,4]oxazino[3,4-i]dipyrrolo[2,1-c:2′,1′-l][1]oxa[4,7,10,13]tetraazacyclohexadecin-12-yl)propanamide] ({NH(3,4-Me2-phenyl)-CO}-[Phe(3,5-F2)][aThr][Hyp][Morpholine(3S-CO)]A[Pro(4R-Me)]; ester 2-C), the EC50 in test [1] (setting [3]) turned out to be 500 ± 10 nM. Moreover, in test [2], the MIC was less than 0.2 µM.
